Values quoted from earlier work as cited in patent US20260048031A1, “POLYMORPHS OF CO-CRYSTALS OF ITANAPRACED AND NICOTINAMIDE” (CereSpir Incorporated, priority 2024, published 2026).
Entries after “also recorded” stand apart in the source; their conditions may differ.

Legend:
[1] = in vivo
[2] = test system: transgenic Alzheimer's mouse models; settings: Imbimbo, 2007, 2009; Lanzillotta 2011
[3] = test system: rat traumatic brain injury model
[4] = test system: mouse models of Parkinson's Disease; settings: manuscript submitted
[5] = test system: Juvenile Batten disease; settings: unpublished
[6] = test system: patients with mild cognitive impairment (MCI); settings: listed as itanapraced

- penetration into the brain [1]: substantial
- plasma half-life [1]: long
- oral bioavailability ([1]; po): good
SMILES: O=C(O)C1(c2ccc(-c3ccc(Cl)c(Cl)c3)c(F)c2)CC1 [CSP-1103, 1-(3′,4′-dichloro-2-fluoro[1,1′-biphenyl]-4-yl)-cyclopropanecarboxylic acid]
- effects in transgenic Alzheimer's mouse models [2]: numerous beneficial effects
- effects in rat traumatic brain injury model ([3]; Lin et al., 2017): numerous beneficial effects
- accumulation of hypertrophic microglia in the injured brain ([3]; rats after TBI (Li 2017)): prevented
- acute lung injury ([3]; rats after TBI (Li 2017)): attenuated
- neurological injury ([3]; rats after TBI (Li 2017)): attenuated
- effects in mouse models of Parkinson's Disease [4]: numerous beneficial effects
- effects in mouse models of Juvenile Batten disease [5]: numerous beneficial effects
- TNF-α (neuroinflammatory mediator) ([6]; CSF / brain, MCI patients): beneficial dose-related CSF differences; also recorded: dose-related statistically significant reductions
- soluble CD40 ligand (neuroinflammatory mediator) ([6]; CSF / brain, MCI patients): beneficial dose-related CSF differences; also recorded: dose-related statistically significant reductions
- total tau (marker of neurodegeneration) ([6]; CSF / brain, MCI patients): beneficial dose-related CSF differences; also recorded: dose-related statistically significant reductions
- cognitive function throughout the duration of the trial ([6]; MCI patients): stable cognition; also recorded: stable cognitive function
- safety and tolerability ([6]; Phase 1 studies and Phase 2 in MCI, treated up to two years): good safety and tolerability; also recorded: well tolerated
